Experimental data: PubChem BioAssay AID1963860 (Molecular Pharmacology Branch, DTP, NCI, 2024)

Tested on: CN0375-F725-PDC KRAS spheroid viability
Assay: Anticancer human tumor CN0375-F725-PDC patient-derived colon carcinoma cell line growth inhibition [KRAS2]
Conditions: spheroids with HUVEC and MSC; for viability, T/C: stronger effect = lower value
Excerpt: Multicellular complex tumor spheroid response to RAS pathway inhibitors in combination with a targeted agents in patient-derived cell lines with oncogenic KRAS variants from multiple cancer types
A high-throughput screen of multi-cell type tumor spheroids was designed to identify active combinations of targeted small molecules and KRAS pathway inhibitors. Complex spheroids include a stromal component modeled by human endothelial cells (HUVEC) and fibroblasts modeled by human mesenchymal stem cells (MSCs). The concentration ranges selected for each drug and investigational agent were based upon clinically achievable concentrations if the clinical Cmax of the agent was known.
Compounds. The drugs and investigational agents: BI-3406 (NSC825286), BAY-293 (NSC824723), batoprotafib (TNO155; NSC825523), sotorasib (AMG 510; NSC818433), MRTX1257 (NSC819558), elimusertib (BAY 1895344; NSC800525), molibresib (GSK525762; NSC774829), temuterkib (LY3214996; NSC803410), venetoclax (NSC766270), alisertib (NSC759677), olaparib (NSC753686), talazoparib (NSC767125), erdafitinib (NSC781556), ipatasertib (NSC767898), cabozantinib (NSC761068), nintedanib (NSC756659), abemaciclib (NSC768073), docetaxel (NSC628503), trametinib (NSC758246), and sapanisertib (NSC764658) were obtained from the National Cancer Institute (NCI) Developmental Therapeutics Program Chemical Repository. The FDA-approved anticancer drug set is available from the Developmental Therapeutics Program. […] The stock solutions were prepared in dimethyl sulfoxide (DMSO, Sigma-Aldrich, St. Louis, MO, cat. D2650) at 800-fold the tested concentration and stored at -70 degrees C prior to their use. All drugs and investigational agents were tested over a range starting from a high concentration at or near the clinical Cmax and decreasing in half-log increments. If the clinical Cmax for an agent had not been determined, the highest concentration tested was 10 microM.
Cell Culture. All cells were maintained in an incubator at 37 degrees C and 5% CO2 with 95% humidity. The PDC lines were cultured according to standard operating procedures established by the NCI PDMR (https://pdmr.cancer.gov/sops/default.htm). Briefly, all PDCs were thawed and cultured in Matrigel-coated flasks prepared with a working solution of 1X Ham's F-12 nutrient mix, without supplementation (Invitrogen, Waltham, MA, cat. 11765054), 100 U/mL penicillin-streptomycin (Invitrogen, cat. 15140122), and 2.5% Matrigel (Corning Inc., Corning, NY, cat. 354248) for the first three passages. All PDCs were cultured in complete DMEM/F-12 media containing advanced DMEM/F-12 (Invitrogen, cat. 12634028), 4.9% defined fetal bovine serum, heat inactivated (HyClone Laboratories Inc., Logan, UT, cat. SH30070.03HI), 389 ng/mL hydrocortisone (Sigma-Aldrich, cat. H4001), 9.7 ng/mL human EGF recombinant protein (Invitrogen, cat. PHG0313), 23.4 microg/mL adenine (Sigma-Aldrich, cat. A2786), 97.3 U/mL penicillin-streptomycin (Invitrogen, cat. 15140122), 1.9 mM L-glutamine (Invitrogen, cat. 25030081), and 9.7 microM Y-27632 dihydrochloride (Tocris Bioscience, Bristol, United Kingdom, cat. 1254). The PDCs were cultured in complete DMEM/F12 media without 9.7 microM Y-27632 dihydrochloride for at least two passages prior to the screen. The established cell line HOP-62 was cultured in RPMI 1640 medium, HEPES (Invitrogen, cat. 22400105) with 10% defined fetal bovine serum (HyClone Laboratories Inc., cat. SH30070.03) and 2 mM L-glutamine (Invitrogen, cat. 25030081). The pooled donor HUVEC were cultured in endothelial cell growth medium 2 (PromoCell, Heidelberg, Germany, cat. C-22011) and the hMSC were cultured in mesenchymal stem cell growth medium 2 (PromoCell, cat. C-28009). For all experiments, HUVEC and hMSC were used at passages </=5, while the malignant cell lines were used at passages </=15. […]

[1] = curve of first compound, second compound 0.1 µM
[2] = curve of first compound, second compound 0.316 µM
[3] = curve of first compound, second compound 1 µM
[4] = curve of first compound, second compound 3.16 µM
[5] = second compound 0.1 µM, first compound 0.01 µM
[6] = second compound 0.1 µM, first compound 0.0316 µM
[7] = second compound 0.1 µM, first compound 0.1 µM
[8] = second compound 0.316 µM, first compound 0.01 µM
[9] = second compound 0.316 µM, first compound 0.0316 µM
[10] = second compound 0.316 µM, first compound 0.1 µM
[11] = second compound 1 µM, first compound 0.01 µM
[12] = second compound 1 µM, first compound 0.0316 µM
[13] = second compound 1 µM, first compound 0.1 µM
[14] = second compound 3.16 µM, first compound 0.01 µM
[15] = second compound 3.16 µM, first compound 0.0316 µM
[16] = second compound 3.16 µM, first compound 0.1 µM
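Further: spheroids exposed to agents for 7 days.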

`Cn1ncnc1[C@H]1c2n[nH]c(=O)c3cc(F)cc(c23)N[C@@H]1c1ccc(F)cc1` + C=CC(=O)N1CCN(c2nc(OCC3CCCN3C)nc3c2CCN(c2cccc4cccc(C)c24)C3)CC1CC#N gave an IC50 (curve of first compound, second compound 0.0316 µM) greater than 100 nM, an IC50 [1] greater than 100 nM and an IC50 [2] greater than 100 nM. It also gave an IC50 [3] greater than 100 nM, an IC50 [4] of less than 0.316 nM and a viability, T/C (second compound 0.0316 µM, first compound 0.000316 µM) of 99.6%. The viability, T/C (second compound 0.0316 µM, first compound 0.001 µM) was 105%, the viability, T/C (second compound 0.0316 µM, first compound 0.00316 µM) was 99.2% and the viability, T/C (second compound 0.0316 µM, first compound 0.01 µM) was 103%. For the same molecule, the viability, T/C (second compound 0.0316 µM, first compound 0.0316 µM) was 97.6%, the viability, T/C (second compound 0.0316 µM, first compound 0.1 µM) was 99.6% and the viability, T/C (second compound 0.1 µM, first compound 0.000316 µM) was 106%. It also gave a viability, T/C (second compound 0.1 µM, first compound 0.001 µM) of 105%, a viability, T/C (second compound 0.1 µM, first compound 0.00316 µM) of 96.9% and a viability, T/C [5] of 94.3%. For the same molecule, the viability, T/C [6] was 100%, the viability, T/C [7] was 91.8% and the viability, T/C (second compound 0.316 µM, first compound 0.000316 µM) was 95.9%. For the same molecule, the viability, T/C (second compound 0.316 µM, first compound 0.001 µM) was 107%, the viability, T/C (second compound 0.316 µM, first compound 0.00316 µM) was 100% and the viability, T/C [8] was 95.9%. The viability, T/C [9] was 101%, the viability, T/C [10] was 87% and the viability, T/C (second compound 1 µM, first compound 0.000316 µM) was 97.6%. The viability, T/C (second compound 1 µM, first compound 0.001 µM) was 99%, the viability, T/C (second compound 1 µM, first compound 0.00316 µM) was 93.7% and the viability, T/C [11] was 87.7%. For the same molecule, the viability, T/C [12] was 90.9%, the viability, T/C [13] was 86.2% and the viability, T/C (second compound 3.16 µM, first compound 0.000316 µM) was 14.6%. It also gave a viability, T/C (second compound 3.16 µM, first compound 0.001 µM) of 13.1%, a viability, T/C (second compound 3.16 µM, first compound 0.00316 µM) of 20.2% and a viability, T/C [14] of 16.1%. It also gave a viability, T/C [15] of 14.4% and a viability, T/C [16] of 14.3%.

In the case of `CCNC(=O)CC1N=C(c2ccc(Cl)cc2)c2cc(OC)ccc2-n2c(C)nnc21` (configuration not stated), the viability, T/C (compound 0.0316 µM) is reported as 100% [middle of 5 runs], the viability, T/C (compound 0.1 µM) is reported as 97.1% [middle of 5 runs] and the viability, T/C (compound 0.316 µM) is reported as 90.4% [middle of 5 runs]. For the same molecule, the viability, T/C (compound 1 µM) was 84.2% [middle of 5 runs], the viability, T/C (compound 3.16 µM) was 74.3% [middle of 5 runs] and the viability, T/C (compound 10 µM) was 58.6% [middle of 5 runs]. The IC50 (curve of compound) was greater than 10000 nM.

`CC1COCCN1c1cc(-c2ccnn2C)c2ccnc(-c3ccn[nH]3)c2n1` (configuration not stated) + CNCc1ccccc1-c1csc(C(C)Nc2nc(C)nc3cc(OC)c(OC)cc23)c1 showed an IC50 [1] greater than 3160 nM, an IC50 [2] of 3100 nM and an IC50 [3] of 127 nM. It also gave an IC50 [4] of less than 10 nM, an IC50 (curve of first compound, second compound 10 µM) of less than 10 nM and a viability, T/C [5] of 97.8%. The viability, T/C [6] was 88.5%, the viability, T/C [7] was 80.7% and the viability, T/C (second compound 0.1 µM, first compound 0.316 µM) was 76.2%. It also gave a viability, T/C (second compound 0.1 µM, first compound 1 µM) of 68%, a viability, T/C (second compound 0.1 µM, first compound 3.16 µM) of 52.1% and a viability, T/C [8] of 92%. For the same molecule, the viability, T/C [9] was 89.7%, the viability, T/C [10] was 74.1% and the viability, T/C (second compound 0.316 µM, first compound 0.316 µM) was 70%. It also gave a viability, T/C (second compound 0.316 µM, first compound 1 µM) of 59.4%, a viability, T/C (second compound 0.316 µM, first compound 3.16 µM) of 49.5% and a viability, T/C [11] of 63.5%. It also gave a viability, T/C [12] of 64.3%, a viability, T/C [13] of 44.1% and a viability, T/C (second compound 1 µM, first compound 0.316 µM) of 45.1%. For the same molecule, the viability, T/C (second compound 1 µM, first compound 1 µM) was 39%, the viability, T/C (second compound 1 µM, first compound 3.16 µM) was 23.5% and the viability, T/C [14] was 0.32%. The viability, T/C [15] was 0.28%, the viability, T/C [16] was 0.36% and the viability, T/C (second compound 3.16 µM, first compound 0.316 µM) was 0.41%. The viability, T/C (second compound 3.16 µM, first compound 1 µM) was 0.44%, the viability, T/C (second compound 3.16 µM, first compound 3.16 µM) was 0.54% and the viability, T/C (second compound 10 µM, first compound 0.01 µM) was 0.45%. The viability, T/C (second compound 10 µM, first compound 0.0316 µM) was 0.24%, the viability, T/C (second compound 10 µM, first compound 0.1 µM) was 0.19% and the viability, T/C (second compound 10 µM, first compound 0.316 µM) was 0.24%. For the same molecule, the viability, T/C (second compound 10 µM, first compound 1 µM) was 0.24% and the viability, T/C (second compound 10 µM, first compound 3.16 µM) was 0.21%.
